Laboratory results from patent publication US6858638B2, “Substituted indazoles, compositions containing them, method of production and use” (Aventis Pharma S.A., priority 2002, dated 2005).

Key:
Type in all cases: biochemical
human FAK = target: T1, human FAK (Homo sapiens, UniProt Q05397); assay: FAK autophosphorylation inhibition, time resolved fluorescence (HTRF) assay; conditions: 10 μM (values without asterisk); read-out: FAK % inhib at 10 μM
T1 construct: The complete cDNA of human FAK; made in house; host or cells: baculovirus expression system (vector pFastBac HTc)
How it was run: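 Autophosphorylation was detected by europium-cryptate anti-pTyr and XL665 anti-His energy transfer, percent inhibition from the 665/620 ratio relative to no-compound wells. Enzyme: His-FAK full length, 6.6 µg/ml, incubated 1 h at 37 °C, pH 7.2, 15 µM ATP.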

human KDR enzyme = target: T2, human KDR enzyme (Homo sapiens, UniProt P35968); assay: KDR substrate (PLCγ) phosphorylation, scintillation assay; conditions: 10 μM; for inhibition at 10 µM: read-out: KDR % inhib at 10 μM
T2 construct: The cytoplasmic domain of the human KDR enzyme; GST; made in house; host or cells: SF21 insect cells (baculovirus)
How it was run: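 Values are percent inhibition relative to the compound-free control, read by scintillation counting of 33P incorporation after EDTA stop. Baculovirus/SF21-expressed GST-KDR cytoplasmic domain (100 ng) acted for 1 h at 37 °C in pH 7.2 MOPS kinase buffer. The substrate was GST-PLCγ SH2-SH3 (2 μg), added with γ33P-ATP and 2 μM unlabeled ATP.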

Aurora2 kinase = target: T3, Aurora2 kinase (Homo sapiens, UniProt O14965); assay: Aurora2 kinase radioactivity scintillation assay using nickel chelate (NuMA substrate); conditions: 10 μM; read-out: Aurora2 % inhib at 10 μM
T3 construct: A complete recombinant Aurora2 enzyme; His tag (N); made in house; host or cells: E. coli
T3 sequence (O14965 1-403): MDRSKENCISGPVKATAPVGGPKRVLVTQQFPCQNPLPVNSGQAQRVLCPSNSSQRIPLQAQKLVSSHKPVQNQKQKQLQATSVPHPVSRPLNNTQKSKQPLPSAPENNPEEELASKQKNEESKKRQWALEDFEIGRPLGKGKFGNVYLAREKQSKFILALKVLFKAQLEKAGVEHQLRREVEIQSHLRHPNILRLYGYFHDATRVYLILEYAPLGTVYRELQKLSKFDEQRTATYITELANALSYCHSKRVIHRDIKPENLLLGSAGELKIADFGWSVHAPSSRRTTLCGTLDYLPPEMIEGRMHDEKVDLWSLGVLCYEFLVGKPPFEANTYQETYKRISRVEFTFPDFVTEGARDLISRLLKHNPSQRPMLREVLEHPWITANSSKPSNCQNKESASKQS
How it was run: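 Read-out is 33P incorporation into His-NuMA (Q1687-H2101, 0.5 μM) captured on nickel chelate, after 30 min at 37 °C with 0.02 μM His-Aurora2 and 1 μM ATP. Expressed as percentage inhibition of uncompounded control activity, background subtracted.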

[1] = target: T4, human IGF1R cytoplasmic domain (Homo sapiens, UniProt P08069); assay: IGF1R autophosphorylation inhibition, time resolved fluorescence (HTRF) assay; conditions: 10 μM; read-out: IGF1R % inhib at 10 μM
T4 construct: The human IGF1R cytoplasmic domain was cloned; made in house; host or cells: SF21 insect cells (baculovirus)
Method: The inhibitory activity of the compounds on IGF1R is determined by measuring the inhibition of the autophosphorylation of the enzyme using a time resolved fluorescence (HTRF) assay.
The human IGF1R cytoplasmic domain was cloned, as a fusion with glutathione S-transferase (GST), into the baculovirus expression vector pFastBac-GST. The protein was expressed in SF21 cells and purified to approximately 80% homogeneity.
The kinase activity was determined by incubating the enzyme with various concentrations of test compound in a 50 mM Hepes buffer, pH 7.5, containing 5 mM MnCl2, 50 mM NaCl, 3% glycerol, 0.025% Tween […] of ATP. The enzyme reaction is stopped by adding 100 mM Hepes buffer, pH 7.0, containing 0.4 M KF, 133 mM EDTA and 0.1% BSA containing an anti-GST antibody labeled with XL665 and an antiphosphotyrosine antibody conjugated to europium cryptate (Eu-K). The characteristics of the two fluorophores, XL-665 and Eu-K, are available in G. Mathis et al., Anticancer Research, 1997, 17, pages 3011-3014. The transfer of energy from the excited europium cryptate to the acceptor XL665 is proportional to the degree of autophosphorylation of IGF1R. The long-lived signal specific for XL-665 is measured in a Victor analyzer plate counter (Perkin-elmer). The inhibition of the IGF1R autophosphorylation activity with compounds of the invention is expressed as percentage inhibition compared to a control whose activity is measured in the absence of test compound.

T2 sequence (P35968 786-1356 limits assumed): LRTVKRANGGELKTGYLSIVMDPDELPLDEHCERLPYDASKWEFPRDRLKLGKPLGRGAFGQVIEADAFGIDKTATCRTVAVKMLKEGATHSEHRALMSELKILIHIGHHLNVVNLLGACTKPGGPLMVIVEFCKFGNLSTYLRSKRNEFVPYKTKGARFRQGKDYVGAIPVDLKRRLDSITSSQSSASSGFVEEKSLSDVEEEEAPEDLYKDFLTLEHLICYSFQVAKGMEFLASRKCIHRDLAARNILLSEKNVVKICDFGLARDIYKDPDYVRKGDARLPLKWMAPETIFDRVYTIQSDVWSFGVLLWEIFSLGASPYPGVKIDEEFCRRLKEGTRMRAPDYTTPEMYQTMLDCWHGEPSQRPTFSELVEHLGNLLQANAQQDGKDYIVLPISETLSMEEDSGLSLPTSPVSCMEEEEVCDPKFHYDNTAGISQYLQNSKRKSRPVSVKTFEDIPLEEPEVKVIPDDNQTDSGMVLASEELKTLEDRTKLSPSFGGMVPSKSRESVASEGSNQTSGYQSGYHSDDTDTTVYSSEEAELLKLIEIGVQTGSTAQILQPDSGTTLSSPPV
T4 sequence (P08069 960-1367 limits assumed): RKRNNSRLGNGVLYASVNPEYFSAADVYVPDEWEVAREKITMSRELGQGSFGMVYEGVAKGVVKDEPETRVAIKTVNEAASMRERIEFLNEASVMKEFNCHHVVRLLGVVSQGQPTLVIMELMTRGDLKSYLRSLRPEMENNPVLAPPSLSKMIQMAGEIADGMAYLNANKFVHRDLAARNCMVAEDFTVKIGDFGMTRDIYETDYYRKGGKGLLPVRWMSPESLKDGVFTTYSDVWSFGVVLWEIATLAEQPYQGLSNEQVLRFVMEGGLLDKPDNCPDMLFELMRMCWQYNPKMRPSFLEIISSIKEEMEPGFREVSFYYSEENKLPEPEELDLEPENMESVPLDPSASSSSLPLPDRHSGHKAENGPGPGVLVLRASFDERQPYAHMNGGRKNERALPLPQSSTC
T1 sequence (Q05397 whole entry): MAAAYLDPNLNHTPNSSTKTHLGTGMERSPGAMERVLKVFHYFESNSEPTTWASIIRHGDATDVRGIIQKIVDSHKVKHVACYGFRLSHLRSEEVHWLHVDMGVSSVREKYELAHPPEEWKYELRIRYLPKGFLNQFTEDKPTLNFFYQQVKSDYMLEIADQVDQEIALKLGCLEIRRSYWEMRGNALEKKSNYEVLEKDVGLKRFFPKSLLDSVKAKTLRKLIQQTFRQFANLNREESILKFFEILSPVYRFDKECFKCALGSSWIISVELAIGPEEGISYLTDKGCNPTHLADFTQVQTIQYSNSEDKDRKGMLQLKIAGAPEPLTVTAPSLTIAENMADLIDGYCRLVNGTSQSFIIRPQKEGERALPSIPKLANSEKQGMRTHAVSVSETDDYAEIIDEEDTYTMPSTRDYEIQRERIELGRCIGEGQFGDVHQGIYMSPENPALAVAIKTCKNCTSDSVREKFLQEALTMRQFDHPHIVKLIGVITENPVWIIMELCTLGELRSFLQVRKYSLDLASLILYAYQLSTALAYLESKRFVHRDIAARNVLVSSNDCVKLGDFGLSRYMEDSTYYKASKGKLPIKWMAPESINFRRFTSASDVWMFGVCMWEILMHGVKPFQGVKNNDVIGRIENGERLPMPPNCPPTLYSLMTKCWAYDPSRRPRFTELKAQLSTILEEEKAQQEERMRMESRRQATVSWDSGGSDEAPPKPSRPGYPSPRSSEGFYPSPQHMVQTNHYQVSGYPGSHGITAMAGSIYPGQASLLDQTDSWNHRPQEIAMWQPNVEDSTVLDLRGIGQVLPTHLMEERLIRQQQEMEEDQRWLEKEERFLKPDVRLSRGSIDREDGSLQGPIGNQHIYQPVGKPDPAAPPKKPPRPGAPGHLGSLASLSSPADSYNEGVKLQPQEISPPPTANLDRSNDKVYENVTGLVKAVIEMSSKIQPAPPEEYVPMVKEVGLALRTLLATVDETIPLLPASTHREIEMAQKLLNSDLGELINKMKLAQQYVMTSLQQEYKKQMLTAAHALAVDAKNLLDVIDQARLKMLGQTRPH

inhibition at 10 µM (human FAK) [%]	inhibition at 10 µM (human KDR enzyme) [%]	inhibition at 10 µM (Aurora2 kinase) [%]	inhibition at 10 µM [1] [%]	KDR % inhib at 10 μM (human KDR enzyme) [%]	SMILES
95	40	100	88	–	CS(=O)(=O)c1ccccc1S(=O)(=O)Nc1ccc2[nH]nc(-c3cccnc3)c2c1 [Example 59, 2-Methylsulfonyl-N-(3-pyridin-3-yl-1H-indazol-5-yl)benzenesulfonamide]
76	56	88	65	–	CCc1ccc(-c2n[nH]c3ccc(NS(=O)(=O)c4ccccc4S(C)(=O)=O)cc23)cc1 [Example 193, N-[3-(4-Ethylphenyl)-1H-indazol-5-yl]-2-methanesulfonyl-benzenesulfonamide]
84	39	30	28	–	CS(=O)(=O)c1ccccc1S(=O)(=O)Nc1ccc2[nH]nc(-c3cc(C(F)(F)F)cc(C(F)(F)F)c3)c2c1 [Example 101, N-[3-(3,5-bistrifluoromethylphenyl)-1H-indazol-5-yl]-2-methylsulfonylbenzenesulfonamide]
91	44	90	77	–	CS(=O)(=O)c1ccccc1S(=O)(=O)Nc1ccc2[nH]nc(-c3ccc(F)c(Cl)c3)c2c1 [Example 167, N-[3-(3-Chloro-4-fluoro-phenyl)-1H-indazol-5-yl]-2-methanesulfonyl-benzenesulfonamide]
70	50	65	0	–	CS(=O)(=O)c1ccccc1S(=O)(=O)Nc1ccc2[nH]nc(-c3ccc(-c4ccccc4)c(F)c3)c2c1 [Example 210, N-[3-(2-Fluorobiphenyl-4-yl)-1H-indazol-5-yl]-2-methanesulfonyl-benzenesulfonamide]
94	60	84	50	–	CS(=O)(=O)c1ccccc1S(=O)(=O)Nc1ccc2[nH]nc(-c3cccc(F)c3F)c2c1 [Example 221, N-[3-(2,3-Difluorophenyl)-1H-indazol-5-yl]-2-methanesulfonyl-benzenesulfonamide]
55	50	82	24	–	CC(C)c1ccc(-c2n[nH]c3ccc(NS(=O)(=O)c4ccccc4S(C)(=O)=O)cc23)cc1 [Example 201, N-[3-(4-Isopropylphenyl)-1H-indazol-5-yl]-2-methanesulfonyl-benzenesulfonamide]
100	–	93	65	53	CS(=O)(=O)c1ccccc1S(=O)(=O)Nc1ccc2[nH]nc(-c3cccs3)c2c1 [Example 174, 2-Methanesulfonyl-N-(3-thiophen-2-yl-1H-indazol-5-yl)-benzenesulfonamide]
53	86	77	58	–	Nc1cc(Cl)cc(Cl)c1S(=O)(=O)Nc1ccc2[nH]nc(-c3ccccc3)c2c1 [Example 159, 2-Amino-4,6-dichloro-N-(3-phenyl-1H-indazol-5-yl)-benzenesulfonamide]
91	47	91	75	–	Cc1ccc(-c2n[nH]c3ccc(NS(=O)(=O)c4ccccc4S(C)(=O)=O)cc23)cc1C [Example 195, 2-Methanesulfonyl-N-[3-(3,4-dimethylphenyl)-1H-indazol-5-yl]benzenesulfonamide]
15	37	68	20	–	CS(=O)(=O)c1ccccc1S(=O)(=O)Nc1ccc2[nH]nc(-c3ccc(I)cc3)c2c1 [Example 218, N-[3-(4-Iodophenyl)-1H-indazol-5-yl]-2-methanesulfonyl-benzenesulfonamide]
70	23	31	0	–	CS(=O)(=O)c1ccccc1S(=O)(=O)Nc1ccc2[nH]nc(-c3cccc(OCc4ccccc4)c3)c2c1 [Example 223, N-[3-(3-Benzyloxyphenyl)-1H-indazol-5-yl]-2-methanesulfonyl-benzenesulfonamide]
96	49	93	72	–	Cc1cc(C)cc(-c2n[nH]c3ccc(NS(=O)(=O)c4ccccc4S(C)(=O)=O)cc23)c1 [Example 179, 2-Methanesulfonyl-N-[3-(3,5-dimethylphenyl)-1H-indazol-5-yl]benzenesulfonamide]
96	61	93	73	–	CS(=O)(=O)c1ccccc1S(=O)(=O)Nc1ccc2[nH]nc(-c3cccc(Br)c3)c2c1 [Example 184, N-[3-(3-Bromophenyl)-1H-indazol-5-yl]-2-methanesulfonyl-benzenesulfonamide]
25	40	59	20	–	CS(=O)(=O)c1ccccc1S(=O)(=O)Nc1ccc2[nH]nc(-c3ccc(Oc4ccccc4)cc3)c2c1 [Example 171, 2-Methanesulfonyl-N-[3-(4-phenoxyphenyl)-1H-indazol-5-yl]benzenesulfonamide]
43	79	92	90	–	O=S(=O)(Nc1ccc2[nH]nc(-c3ccccc3)c2c1)c1cccc2ccccc12 [Example 106, N-(3-Phenyl-1H-indazol-5-yl)-naphthalene-1-sulfonamide]
70	72	100	69	–	N#Cc1ccccc1S(=O)(=O)Nc1ccc2[nH]nc(-c3ccccc3)c2c1 [Example 144, 2-Cyano-N-(3-phenyl-1H-indazol-5-yl)-benzenesulfonamide]
94	97	100	96	–	CS(=O)(=O)c1ccccc1S(=O)(=O)Nc1ccc2[nH]nc(/C=C/c3ccccc3)c2c1 [Example 78, 2-Methylsulfonyl-N-[3-((E)-styryl)-1H-indazol-5-yl]benzenesulfonamide]
95	21	79	45	–	CS(=O)(=O)c1ccccc1S(=O)(=O)Nc1ccc2[nH]nc(-c3cc(Br)cc(Br)c3)c2c1 [Example 211, N-[3-(3,5-Dibromophenyl)-1H-indazol-5-yl]-2-methanesulfonyl-benzenesulfonamide]
6	70	71	40	–	O=C(NCc1ccc(S(=O)(=O)Nc2ccc3[nH]nc(-c4ccccc4)c3c2)s1)c1ccccc1 [Example 140, N-[5-(3-Phenyl-1H-indazol-5-ylsulfamoyl)thiophen-2-ylmethyl]benzamide]
